Patent publication US4267192A, “Method for treating inflammation” (priority 1980, dated 1981)

Tests used:
[1] = target: T1, prostaglandin synthetase (Ovis aries, UniProt P05979); assay: in vitro prostaglandin synthetase activity assay (PGE2 formation from 14C-arachidonic acid); format: biochemical, sheep; parameters: microsomal fraction of sheep vesicles; from tissue; host or cells: sheep seminal vesicles, microsomal fraction (105,000×g precipitate); settings: for cpm (× 1000), in vitro PGE2 biosynthesis: sheep seminal vesicle microsomes
T1 sequence (P05979 25-600): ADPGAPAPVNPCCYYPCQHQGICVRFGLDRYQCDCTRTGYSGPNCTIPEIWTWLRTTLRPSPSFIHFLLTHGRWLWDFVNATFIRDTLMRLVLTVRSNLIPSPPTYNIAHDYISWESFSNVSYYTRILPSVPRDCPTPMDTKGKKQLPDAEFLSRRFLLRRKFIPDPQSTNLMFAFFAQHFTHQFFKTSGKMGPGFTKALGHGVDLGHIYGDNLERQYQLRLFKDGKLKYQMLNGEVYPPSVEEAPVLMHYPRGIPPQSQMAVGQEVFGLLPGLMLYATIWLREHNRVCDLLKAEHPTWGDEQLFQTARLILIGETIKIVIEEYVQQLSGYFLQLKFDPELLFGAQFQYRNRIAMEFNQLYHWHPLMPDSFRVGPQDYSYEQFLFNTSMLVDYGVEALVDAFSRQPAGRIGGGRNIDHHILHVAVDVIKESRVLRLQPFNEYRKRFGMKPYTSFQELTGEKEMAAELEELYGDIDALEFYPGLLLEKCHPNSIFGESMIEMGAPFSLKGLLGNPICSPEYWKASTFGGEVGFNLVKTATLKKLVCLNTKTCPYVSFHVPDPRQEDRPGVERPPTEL
Method: Frozen sheep seminal vesicles are cleaned of fat and connective tissue and then minced. Ten grams of the minced tissue are homogenized in 20 ml. of 0.125 M Na-EDTA buffer, pH 8.3, employing polytron homogenizer. The homogenate is then centrifuged at 1,200×g. for 10 minutes and the resulting supernatant filtered through two layers of cheese cloth. The filtrate is then centrifuged at 10,000×g. for 20 minutes. The supernatant is then centrifuged at 105,000×g. for 1 hour. The precipitate is dissolved once with Na-EDTA buffer and recentrifuged at 105,000×g. for 1 hour. The final microsomal fraction is then dissolved in 1.0 ml. of Na-EDTA buffer and stored in a freezer.
The incubation buffer medium (1.0 ml. total) consists of 500 μg of lyophilized bovine serum albumin, 5×10^-4 M hydroquinone, 1.0×10^-2 M reduced glutathione, 3×10^-6 M^14 C arachidonic acid (AA) in 0.02 ml. of methanol, 0.01 ml. of the tested drugs in methanol at the desired concentrations, and the microsomal fraction (1.2 mg. protein/ml. incubation medium). This medium is incubated for one hour at 37° C. At the end of this period, enzyme reaction is terminated by the addition of 0.25 ml. of 1 N HCl. 15 μg of non-radioactive Prostaglandin E2 (PGE2), Prostaglandin F2α (PGF2α) and AA (5 μg each) in an ethanol solution is then added to all of the acidified reaction mixtures. The reaction products are extracted with ethylacetate (2×2 ml.) and the total organic solution of 4 ml. is washed with 1.0 ml. of triple distilled water. 3.0 ml. of the total ethylacetate solution is removed and evaporated to dryness under nitrogen gas. The residue is then re-dissolvedin 50 μl. of 100% ethanol and spotted on silica gel GF plates and subjected to chromatograph. Only the organic phase of the ethyl acetate:water:iso-octane:acetic acid system (11:10:5:2) is used as solvent in the chromatography system.
After exposure to iodine vapor, the PGE2 and AA spots are scraped from the TLC plate, put into separate vials, and mixed with 10.0 ml. of Instagel scintillation cocktail for counting in a Nuclear-Chicago Mark II liquid scintillation counter.
Results are expressed as counts per minute (cpm), evidencing in vitro PGE2 biosynthesis.

[2] = tested on: carrageenan-induced edema in the hind paw of the rat; assay: rat carrageenan edema test (hind paw); format: in vivo, rat (male Sprague-Dawley); settings: for Change in paw volume (ml) from 0-3 hr: mean ± S.E.; for % Change in paw edema: vs control
Method: Vehicle alone is administered as a control. Sixty minutes after drug administration edema is induced by an injection of 0.1 ml. of a 1% carrageenan solution is saline into the subplantar tissue of the rat's right hind paw. Two minutes later, paw volume is measured volumetrically with a plethysmograph and again 3 hours later. The mean volume of swelling for the control group is calculated and compared to the test groups. Percent change in paw edema is calculated and analyzed statistically (unpaired, Student's t-test).

[3] = tested on: established adjuvant arthritis in rats; assay: established adjuvant arthritis, dosing on days 16, 17 and 18; settings: rat
Method: Polyarthritis is induced in groups of 6-10 Sprague-Dawley rats weighing between 180-220 g. by a subcutaneous injection into the right paw of dessicated Mycobacterium butyricum or tuberculosis (0.5 mg/0.1 ml.) suspended in light mineral oil. […] Both hind paw volumes (ml.) are measured by mercury plethysmograph on day 0 or at the time of injection of the complete adjuvant. Increases in paw volume (viz. edema) are determined for both paws on days 4 and 16. The change in body weight from day 0 to day 16 is also calculated. Statistical analysis of differences in paw edemas and body weight is performed by using the unpaired. Student's t-test.
The changes in left paw edema are measured at the end of 19 days, 23 days and 30 days.

[4] = oral 100 mg/kg, Table 1 group a
[5] = oral 180 mg/kg, Table 1 group c
[6] = oral 180 mg/kg, Table 1 group e

Compound: O=C(O)C=C1c2ccccc2C=Cc2ccccc21 [DCHA]
- cpm (× 1000), in vitro PGE2 biosynthesis ([1]; 30 μg/ml): 6.6 ± .3 cpm (× 1000)
- cpm (× 1000), in vitro PGE2 biosynthesis ([1]; 50 μg/ml): 5.2 ± .4 cpm (× 1000)
- cpm (× 1000), in vitro PGE2 biosynthesis ([1]; 60 μg/ml): 5.1 ± .2 cpm (× 1000)
- cpm (× 1000), in vitro PGE2 biosynthesis ([1]; 100 μg/ml): 3.0 ± .1 cpm (× 1000)
- cpm (× 1000), in vitro PGE2 biosynthesis ([1]; 120 μg/ml): 3.3 ± .4 cpm (× 1000)
- cpm (× 1000), in vitro PGE2 biosynthesis ([1]; 150 μg/ml): 2.1 ± .3 cpm (× 1000)
- cpm (× 1000), in vitro PGE2 biosynthesis ([1]; 200 μg/ml): 2.0 ± .1 cpm (× 1000)
- IC50 ([1]; calculated from Table 6, read-out: 50% inhibitory concentration (converted)): 259 µM
- inhibitory effect on prostaglandin synthetase activity ([1]; in words): does not have an appreciable inhibitory effect on prostaglandin synthetase activity
- estimated ED50 (carrageenan paw edema) ([2]; oral): ~80 mg/kg
- oral doses that inhibit carrageenan paw edema ([2]; oral): 10 to 180 mg/kg
- Change in paw volume (ml) from 0-3 hr ([2]; oral 3 mg/kg, Table 1 group a): 0.63 ± 0.10 mL
- % Change in paw edema ([2]; oral 3 mg/kg, Table 1 group a): -18%
- Change in paw volume (ml) from 0-3 hr ([2]; oral 10 mg/kg, Table 1 group a): 0.61 ± 0.05 mL
- % Change in paw edema ([2]; oral 10 mg/kg, Table 1 group a): -21%
- Change in paw volume (ml) from 0-3 hr ([2]; oral 10 mg/kg, Table 1 group b): 0.53 ± 0.10 mL
- % Change in paw edema ([2]; oral 10 mg/kg, Table 1 group b): -48%
- Change in paw volume (ml) from 0-3 hr ([2]; oral 20 mg/kg, Table 1 group c): 0.84 ± 0.10 mL
- % Change in paw edema ([2]; oral 20 mg/kg, Table 1 group c): -16%
- Change in paw volume (ml) from 0-3 hr ([2]; oral 20 mg/kg, Table 1 group e): 1.08 ± 0.05 mL
- % Change in paw edema ([2]; oral 20 mg/kg, Table 1 group e): -6%
- Change in paw volume (ml) from 0-3 hr ([2]; oral 30 mg/kg, Table 1 group a): 0.48 ± 0.06 mL
- % Change in paw edema ([2]; oral 30 mg/kg, Table 1 group a): -38%
- Change in paw volume (ml) from 0-3 hr ([2]; oral 30 mg/kg, Table 1 group b): 0.58 ± 0.08 mL
- % Change in paw edema ([2]; oral 30 mg/kg, Table 1 group b): -43%
- Change in paw volume (ml) from 0-3 hr ([2]; oral 60 mg/kg, Table 1 group c): 0.47 ± 0.08 mL
- % Change in paw edema ([2]; oral 60 mg/kg, Table 1 group c): -53%
- Change in paw volume (ml) from 0-3 hr ([2]; oral 60 mg/kg, Table 1 group e): 0.82 ± 0.13 mL
- % Change in paw edema ([2]; oral 60 mg/kg, Table 1 group e): -29%
- Change in paw volume (ml) from 0-3 hr ([2]; oral 90 mg/kg, Table 1 group b): 0.44 ± 0.03 mL
- % Change in paw edema ([2]; oral 90 mg/kg, Table 1 group b): -57%
- Change in paw volume (ml) from 0-3 hr [2, 4]: 0.44 ± 0.07 mL
- % Change in paw edema [2, 4]: -43%
- Change in paw volume (ml) from 0-3 hr [2, 5]: 0.49 ± 0.06 mL
- % Change in paw edema [2, 5]: -51%
- Change in paw volume (ml) from 0-3 hr [2, 6]: 0.62 ± 0.04 mL
- % Change in paw edema [2, 6]: -46%
- return to pretreatment or higher edema levels ([3]; end of 30 days, 12 days after last dosing): no significant return to pretreatment or even higher edema levels
- % Change from Control, left paw edema (day 0-19) ([3]; oral 10 mg/kg, days 16, 17, 18): -20%
- % Change from Control, left paw edema (day 0-23) ([3]; oral 10 mg/kg, days 16, 17, 18): -15%
- % Change from Control, left paw edema (day 0-30) ([3]; oral 10 mg/kg, days 16, 17, 18): -21%
- Increase in left paw edema ml. (day 0-19) ([3]; oral 10 mg/kg, days 16, 17, 18): 0.78 ± 0.11 mL
- Increase in left paw edema ml. (day 0-23) ([3]; oral 10 mg/kg, days 16, 17, 18): 0.82 ± 0.13 mL
- Increase in left paw edema ml. (day 0-30) ([3]; oral 10 mg/kg, days 16, 17, 18): 1.20 ± 0.16 mL
- % Change from Control, left paw edema (day 0-19) ([3]; oral 30 mg/kg, days 16, 17, 18): -26%
- % Change from Control, left paw edema (day 0-23) ([3]; oral 30 mg/kg, days 16, 17, 18): -10%
- % Change from Control, left paw edema (day 0-30) ([3]; oral 30 mg/kg, days 16, 17, 18): -29%
- Increase in left paw edema ml. (day 0-19) ([3]; oral 30 mg/kg, days 16, 17, 18): 0.75 ± 0.11 mL
- Increase in left paw edema ml. (day 0-23) ([3]; oral 30 mg/kg, days 16, 17, 18): 0.87 ± 0.16 mL
- Increase in left paw edema ml. (day 0-30) ([3]; oral 30 mg/kg, days 16, 17, 18): 1.07 ± 0.17 mL
- % Change from Control, left paw edema (day 0-19) ([3]; oral 90 mg/kg, days 16, 17, 18): -42%
- % Change from Control, left paw edema (day 0-23) ([3]; oral 90 mg/kg, days 16, 17, 18): -24%
- % Change from Control, left paw edema (day 0-30) ([3]; oral 90 mg/kg, days 16, 17, 18): -32%
- Increase in left paw edema ml. (day 0-19) ([3]; oral 90 mg/kg, days 16, 17, 18): 0.59 ± 0.06 mL
- Increase in left paw edema ml. (day 0-23) ([3]; oral 90 mg/kg, days 16, 17, 18): 0.73 ± 0.10 mL
- Increase in left paw edema ml. (day 0-30) ([3]; oral 90 mg/kg, days 16, 17, 18): 1.03 ± 0.11 mL
- effect on left paw edema of rats with established adjuvant arthritis ([3]; oral, days 16, 17, 18): significant decrease in the left paw edema
